Experimental data taken from ChEMBL document CHEMBL3045257, “Pyrenocines J-M: four new pyrenocines from the endophytic fungus, Phomopsis sp” (2012).

Tests used:
[1] = test system: Priestia megaterium; assay: Antimicrobial activity against Bacillus megaterium by agar diffusion test; type: functional
[2] = test system: Microbotryum violaceum; assay: Antifungal activity against Microbotryum violaceum by agar diffusion test; type: functional
[3] = test system: [Chlorella] fusca; assay: Antialgal activity against 'Chlorella' fusca by agar diffusion test; type: functional, Scenedesmus fuscus
[4] = test system: Escherichia coli; assay: Antimicrobial activity against Escherichia coli by agar diffusion test; type: functional
[5] = test system: Phytophthora infestans; assay: Antifungal activity against Phytophthora infestans by agar diffusion test; type: functional
[6] = test system: Zymoseptoria tritici; assay: Antifungal activity against Zymoseptoria tritici by agar diffusion test; type: functional
[7] = test system: Pyricularia oryzae; assay: Antifungal activity against Magnaporthe oryzae by agar diffusion test; type: functional
[8] = test system: Botrytis cinerea; assay: Antifungal activity against Botryotinia fuckeliana by agar diffusion test; type: functional

Molecule | inhibition zone (IZ) [1] [mm] | inhibition zone (IZ) [2] [mm] | inhibition zone (IZ) [3] [mm] | inhibition zone (IZ) [4] [mm] | inhibition zone (IZ) [5] [mm] | inhibition zone (IZ) [6] [mm] | inhibition zone (IZ) [7] [mm] | inhibition zone (IZ) [8] [mm] | inhibition zone (IZ) ([3]; Scenedesmus fuscus) [mm]
C[C@@H]1C[C@@H]([C@H](O)CC2CC(=O)NC(=O)C2)C(=O)[C@@H](C)C1 [CYCLOHEXIMIDE] | 0 | 50 | 35 | 0 | – | – | – | – | –
CC1(C)S[C@@H]2[C@H](NC(=O)Cc3ccccc3)C(=O)N2[C@H]1C(=O)O [PENICILLIN G] | 18 | 0 | 0 | 14 | – | – | – | – | –
COc1cc(=O)oc2c1CO[C@@H](CC(C)=O)C2 [PYRENOCINE K] | 8 | 5 | 6 | 6 | 0 | 6 | 0 | 0 | –
CCC[C@@H](Cc1oc(=O)cc(OC)c1CO)OC(C)=O [PYRENOCINE L] | 9 | 0 | 10 | 10 | 0 | 0 | 0 | 0 | –
CCCCCc1oc(=O)cc(OC)c1CO [PYRENOCINE M] | 9 | 5 | 5 | 5 | 0 | 6 | 0 | 0 | –
CN(C)[C@@H]1C(O)=C(C(N)=O)C(=O)[C@@]2(O)C(O)=C3C(=O)c4c(O)cccc4[C@@](C)(O)[C@H]3C[C@@H]12 [TETRACYCLINE] | 18 | 0 | 10 | 18 | – | – | – | – | –
NYSTATIN | 0 | 20 | – | 0 | – | – | – | – | 0
